# Results as given in patent US6410558B1, “Fungicides for the control of take-all disease of plants” (Monsanto Technology LLC, priority 1991, dated 2002).
# Tested on: Gaeumannomyces graminis var. tritici (Ggt)
# Assay: In vitro Assay: mycelial growth of Ggt on minimal media agar plates containing test compound
# Type: cell-based
# Details: Gaeumannomyces graminis, dark, 19-20° C., 4 to 5 days, diameter of mycelial growth; for inhibition at 0.1 ppm: 0.1 ppm in minimal media agar, read-out: In vitro (ppm) 0.1, Percent Inhibition; for inhibition at 1 ppm: 1 ppm in minimal media agar, read-out: In vitro (ppm) 1, Percent Inhibition; for inhibition at 10 ppm: 10 ppm in minimal media agar, read-out: In vitro (ppm) 10, Percent Inhibition
# Description: The test compounds (0.25 mL of an appropriate stock solution in acetone) are incorporated into 25 mL minimal media agar [(prepared by autoclaving a solution of 17.5 g Czapek Dox broth (Difco), 7.5 g purified agar or Bacto-agar (Difco), and 500 mL distilled/deionized water, and then adding 50 μL of 1 mg/mL thiamine hydrochloride and 50 μL of 1 mg/mL biotin in 5% ethanol] and plates are prepared.
# Each plate is inoculated by placing in a triangular shape three 4-mm plugs of Gaeumannomyces graminis var. tritici (Ggt) grown on the minimal media agar described above. The plates are incubated in the dark at 19-20° C. for 4 to 5 days. The growth of the fungus is measured as the diameter of the mycelial growth. The result is expressed as Percent Inhibition, calculated as [1-[(mm growth on treated plate −4)/(mm growth on control plate −4)]]×100.
Compound,inhibition at 0.1 ppm [%],inhibition at 1 ppm [%],inhibition at 10 ppm [%]
"CCOCCN(CC)C(=O)c1c(Cl)cccc1[Si](C)(C)C [Example 128, 2-Chloro-N-(2-ethoxyethyl)-N-ethyl-6-(trimethylsilyl)benzamide]",4,8,50
"C[Si](C)(C)c1cccc(Cl)c1C(=O)NC1CCCCC1 [Example 129, 2-Chloro-N-cyclohexyl-6-(trimethylsilyl)benzamide]",9,35,26
"CC1CCCC(C)N1C(=O)c1c(Cl)cccc1[Si](C)(C)C (stereo not drawn) [Example 131, N-[2-Chloro-6-(trimethylsilyl)benzoyl]-2,6-dimethylpiperidine]",< 0,6,3
"C[Si](C)(C)c1cccc(Cl)c1C(=O)NCc1ccccn1 [Example 135, 2-Chloro-N-(2-pyridinylmethyl)-6-(trimethylsilyl)benzamide]",22,17,39
"COc1ccc(CNC(=O)c2c(Cl)cccc2[Si](C)(C)C)cc1 [Example 136, 2-Chloro-N-[(4-methoxyphenyl)methyl]-6-(trimethylsilyl)benzamide]",3,26,100
"C[Si](C)(C)c1cccc(Cl)c1C(=O)NCc1ccc([N+](=O)[O-])cc1 [Example 137, 2-Chloro-N-[(4-nitrophenyl)-methyl]-6-(trimethylsilyl)-benzamide]",17,61,100
"C[Si](C)(C)c1cccc(Cl)c1C(=O)NCc1cccs1 [Example 138, 2-Chloro-N-(2-thienylmethyl)-6-(trimethylsilyl)benzamide]",14,36,97
"COc1cccc(CNC(=O)c2c(Cl)cccc2[Si](C)(C)C)c1 [Example 139, 2-Chloro-N-[(3-methoxyphenyl)methyl]-6-(trimethylsilyl)benzamide]",11,53,100
"COc1cc(CNC(=O)c2c(Cl)cccc2[Si](C)(C)C)cc(OC)c1OC [Example 140, 2-Chloro-N-[(3,4,5-trimethoxyphenyl)methyl]-6-(trimethylsilyl)benzamide]",19,19,81
"C[Si](C)(C)c1cccc(Cl)c1C(=O)NCc1cccc([N+](=O)[O-])c1 [Example 141, 2-Chloro-N-[(3-nitrophenyl)-methyl]-6-(trimethylsilyl)-benzamide]",19,64,100
"C[Si](C)(C)c1cccc(Cl)c1C(=O)NCC#N [Example 142, 2-Chloro-N-(cyanomethyl)-6-(trimethylsilyl)benzamide]",< 0,< 0,59
"CCN(CO)C(=O)c1c(C)cccc1[Si](C)(C)C [Example 143, N-Ethyl-N-(hydroxymethyl)-2-methyl-6-(trimethylsilyl)benzamide]",5,13,74
"C[Si](C)(C)c1cccc(Cl)c1C(=O)NCc1ccc2c(c1)OCO2 [Example 144, N-(1,3-benzodioxol-5-ylmethyl)-2-chloro-6-(trimethylsilyl)benzamide]",< 0,11,59
"C[Si](C)(C)c1cccc(Cl)c1C(=O)NCc1ccncc1 [Example 145, 2-Chloro-N-(4-pyridinylmethyl)-6-(trimethylsilyl)benzamide]",< 0,< 0,27
"COCCNC(=O)c1c(Cl)cccc1[Si](C)(C)C [Example 146, 2-Chloro-N-(2-methoxyethyl)-6-(trimethylsilyl)benzamide]",14,65,84
